Results on four compounds are retold here after PMC8812461, “Synthesis of New 3-Arylcoumarins Bearing N-Benzyl Triazole Moiety: Dual Lipoxygenase and Butyrylcholinesterase Inhibitors With Anti-Amyloid Aggregation and Neuroprotective Properties Against Alzheimer’s Disease” (Frontiers in Chemistry, 2022).

Read-outs that look alike come from different tables or passages of the source.

The target of series [1] is T1, Aβ1-42 in the presence of AChE (Homo sapiens, UniProt P05067).
T1 construct: was used to dissolve amyloid β1-40 (Sigma A1075); purchased Sigma (Aβ); Merck or Aldrich (AChE) A1075 (Aβ)
Nature of the series: AChE-induced Aβ1-42 aggregation (ThT assay). Type of series: biochemical. The following applies: compound 100.0 μM, AChE 0.01 u/ml.

Series [2] concerns the target T2, 15-LOX (soybean lipoxygenase) (Glycine max, UniProt P08170).
T2 construct: purchased Merck or Aldrich
T2 sequence (P08170 1-839): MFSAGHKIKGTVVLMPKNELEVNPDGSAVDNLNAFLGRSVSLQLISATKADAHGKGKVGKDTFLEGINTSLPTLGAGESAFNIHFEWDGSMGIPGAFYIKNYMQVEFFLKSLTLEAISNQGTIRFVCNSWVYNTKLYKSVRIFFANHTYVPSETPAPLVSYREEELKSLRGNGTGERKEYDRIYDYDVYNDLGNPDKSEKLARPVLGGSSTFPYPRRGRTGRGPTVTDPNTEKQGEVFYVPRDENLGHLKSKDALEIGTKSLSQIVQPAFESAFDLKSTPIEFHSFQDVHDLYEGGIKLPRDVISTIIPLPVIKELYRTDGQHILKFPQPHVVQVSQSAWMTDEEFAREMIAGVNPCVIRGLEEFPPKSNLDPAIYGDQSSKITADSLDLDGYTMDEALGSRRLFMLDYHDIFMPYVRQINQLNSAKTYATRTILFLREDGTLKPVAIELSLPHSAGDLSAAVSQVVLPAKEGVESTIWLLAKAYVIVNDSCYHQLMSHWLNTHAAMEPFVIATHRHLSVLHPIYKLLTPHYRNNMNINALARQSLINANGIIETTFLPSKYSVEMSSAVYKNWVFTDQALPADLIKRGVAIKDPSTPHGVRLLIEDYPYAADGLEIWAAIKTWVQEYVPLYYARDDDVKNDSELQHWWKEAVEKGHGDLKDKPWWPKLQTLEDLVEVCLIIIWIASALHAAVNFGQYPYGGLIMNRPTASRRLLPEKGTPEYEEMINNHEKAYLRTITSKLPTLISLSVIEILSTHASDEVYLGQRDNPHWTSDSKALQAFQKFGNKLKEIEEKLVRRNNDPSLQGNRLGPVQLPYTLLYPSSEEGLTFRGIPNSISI
Nature of the series: Soybean 15-LOX inhibition assay. Type of series: biochemical. How it is done: A solution of the target compound was prepared in DMSO, and it was diluted with phosphate buffer (0.1 M, pH = 8.0).

In a further series the target is T3, BuChE (Equus caballus, UniProt P81908).
T3 construct: BuChE from equine serum was employed for Ellman’s assay; purchased Merck or Aldrich; host or cells: equine serum
Nature of the series: Kinetic study of BuChE inhibition (Lineweaver–Burk). In kind it is biochemical. To be noted: secondary plot; inhibitor 0, 10.0, 20.0, 40.0 µM; read-out: Inhibitory constant (Ki) for BuChE. How it is done:
Kinetics of the BuChE inhibition activity was studied for compound 8l at different inhibitor concentrations (0, 10.0, 20.0, and 40.0 µM) as mentioned in the ChE inhibition assay section. Different concentrations of the substrate (S) and butyrylthiocholine iodide (BuChI) were applied to obtain the initial velocity measurements, in each case. The reciprocal of the S (1/S) was plotted against the initial velocity (1/v) ([Rampa et al., 2000]). […] […]. Ellman’s method was utilized to assess anti-AChE/BuChE activity of the synthesized compounds ([Ellman et al., 1961]). AChE from electrophorus electricus and BuChE from equine serum was employed for Ellman’s assay. Each compound (5.0 mg) was dissolved in 1.0 ml of DMSO. […] Briefly, a mixture of phosphate buffer (2.0 ml, 0.1 M, pH = 8.0), 60.0 µl of DTNB solution, and 20.0 µl of AChE/BuChE was prepared, and 30.0 µl of the test compounds in different concentrations were then added to the mixture. […] The change in the absorbance wavelength of 412 nm was recorded for 1 min. […] The rate of the enzymatic hydrolysis of the substrate was calculated, and % inhibition of the compounds was determined. The half maximal inhibitory concentration (IC50) values were graphically determined from inhibition curves (logarithm of the concentration of the tested compound versus percent of the inhibition).

For a further series, the system named is BV-2 cells. Nature of the series: Hydrogen peroxide cell-based assay (extracellular H2O2, amyloid β-induced). Details: species or system murine. The following applies: 10.0 μM compound 3 h before amyloid β1-40 (5.0 μM), 24 h. How it is done: The BV-2 immortalized murine microglial cell line was cultured in a high-glucose Dulbecco’s modified Eagle medium (DMEM) without phenol red supplemented with 10% of FBS, %1 of L -glutamine, and 1% of penicillin–streptomycin solution. The cells were kept in a moistened atmosphere at 37°C. Quantitation of the extracellular H2O2 produced by the BV-2 cells was detected using the Oxiselect Sta-343 hydrogen peroxide assay according to the kit’s protocol. Briefly, the cells were seeded in a 384-well plate (1,000 cells/well) overnight in 50.0 μl/well of serum and phenol red free culture medium, then treated with 10.0 μM of the compounds for 3 h, prior to amyloid β1-40 treatment (5.0 μM) and incubated for 24 h. An amount of 25.0 μl of medium was collected and mixed with 250.0 μl aqueous working solution. The absorbance values at 595 nm of each well were measured using a BMG Labtech Omega FLUOstar microplate reader. BHT (butylated hydroxytoluene, Cell biolabs) was also tested as a reference antioxidant agent ([Datki et al., 2003]).

In series [3] the target is T4, AChE (from electrophorus electricus) (Electrophorus electricus, UniProt O42275).
T4 construct: purchased Merck or Aldrich
Nature of the series: Cholinesterase inhibition assay (Ellman's method), AChE. Type of series: biochemical. To be noted: test concentration not given. How it is done:
(§1) AChE from electrophorus electricus and BuChE from equine serum was employed for Ellman’s assay. Each compound (5.0 mg) was dissolved in 1.0 ml of DMSO. […] Briefly, a mixture of phosphate buffer (2.0 ml, 0.1 M, pH = 8.0), 60.0 µl of DTNB solution, and 20.0 µl of AChE/BuChE was prepared, and 30.0 µl of the test compounds in different concentrations were then added to the mixture. Next, a solution of the substrate (acetylthiocholine iodide/butyrylthiocholine iodide, 20.0 µl) was added to the mixture after 10 min incubation at 25°C. All experiments were performed in triplicates, and the temperature of all solutions was controlled to be maintained at 25°C. […] The blank solution was used to validate the non-enzymatic hydrolysis of the substrate during the assessment. The blank solution was prepared by a mixture of 2.0 ml of buffer, 30.0 μl of DMSO, 60.0 μl of DTNB, and 20.0 μl of substrate. The rate of the enzymatic hydrolysis of the substrate was calculated, and % inhibition of the compounds was determined. The half maximal inhibitory concentration (IC50) values were graphically determined from inhibition curves (logarithm of the concentration of the tested compound versus percent of the inhibition).

In another series the target is T5, Aβ1-42 (Homo sapiens, UniProt P05067).
T5 construct: was used to dissolve amyloid β1-40 (Sigma A1075); purchased Sigma A1075
Nature of the series: Self-induced Aβ1-42 aggregation (ThT assay). The following applies: for Self-induced Aβ aggregation inhibition relative to donepezil: 100.0 μM, versus donepezil; for Inhibition of self-induced Aβ1-42 aggregation: Aβ1-42 10.0 μM, compound 100.0 μM, ThT. In kind it is biochemical.

In series [4] the target is T6, BuChE (from equine serum) (Equus caballus, UniProt P81908).
T6 construct: BuChE from equine serum was employed for Ellman’s assay; purchased Merck or Aldrich; host or cells: equine serum
Nature of the series: biochemical. Type of series: biochemical. To be noted: mean ± SEM of three experiments, read-out: eq BuChE IC50. How it is done: as §1

A further series in a line: in vitro. Type of series: cell-based. The following applies: MTT, read-out: PC12 viability percent (cytotoxicity). As to the method:
The cytotoxic effect of the selected compounds (8l and 8n) on the PC12 cell line was evaluated by using the MTT-based colorimetric assay. First, the PC12 cell line was cultivated in DMEM culture medium, supplemented with fetal bovine serum (10%). […]. Thereafter, the culture medium of each well was replaced by 20 µl MTT solution (5.0 mg/ml) and incubated to form formazan crystals, followed by dissolving them in DMSO (100.0 µl) and recording the related absorbance at 570 nm using a Synergy 2 multimode plate reader (Biotek, Winooski, VT, United States). The viability percent was then calculated according to the control well, where no compound was added to the related well. The mentioned protocol was repeated in triplicates, and the mean ± SEM of the obtained results was reported.

T5 sequence (P05067 672-711): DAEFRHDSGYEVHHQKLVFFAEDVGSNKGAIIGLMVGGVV
T6 sequence (P81908 whole entry): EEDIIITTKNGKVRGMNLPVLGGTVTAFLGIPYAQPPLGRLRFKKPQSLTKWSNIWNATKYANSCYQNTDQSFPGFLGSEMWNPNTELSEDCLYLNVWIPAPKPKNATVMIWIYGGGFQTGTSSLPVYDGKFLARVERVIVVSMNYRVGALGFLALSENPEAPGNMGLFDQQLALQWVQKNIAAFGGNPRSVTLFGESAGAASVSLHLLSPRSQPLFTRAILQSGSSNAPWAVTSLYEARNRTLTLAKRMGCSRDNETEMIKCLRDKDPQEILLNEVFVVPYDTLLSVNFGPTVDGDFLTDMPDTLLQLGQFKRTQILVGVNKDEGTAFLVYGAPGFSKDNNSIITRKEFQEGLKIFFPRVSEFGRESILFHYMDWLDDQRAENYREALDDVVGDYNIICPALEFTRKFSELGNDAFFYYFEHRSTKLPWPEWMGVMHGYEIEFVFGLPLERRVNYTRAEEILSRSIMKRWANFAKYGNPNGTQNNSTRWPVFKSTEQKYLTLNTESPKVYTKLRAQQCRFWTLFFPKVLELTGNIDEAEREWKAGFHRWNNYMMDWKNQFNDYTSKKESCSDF
T1 sequence (P05067 672-711): as the sequence (P05067 672-711) above
T4 sequence (O42275 24-633): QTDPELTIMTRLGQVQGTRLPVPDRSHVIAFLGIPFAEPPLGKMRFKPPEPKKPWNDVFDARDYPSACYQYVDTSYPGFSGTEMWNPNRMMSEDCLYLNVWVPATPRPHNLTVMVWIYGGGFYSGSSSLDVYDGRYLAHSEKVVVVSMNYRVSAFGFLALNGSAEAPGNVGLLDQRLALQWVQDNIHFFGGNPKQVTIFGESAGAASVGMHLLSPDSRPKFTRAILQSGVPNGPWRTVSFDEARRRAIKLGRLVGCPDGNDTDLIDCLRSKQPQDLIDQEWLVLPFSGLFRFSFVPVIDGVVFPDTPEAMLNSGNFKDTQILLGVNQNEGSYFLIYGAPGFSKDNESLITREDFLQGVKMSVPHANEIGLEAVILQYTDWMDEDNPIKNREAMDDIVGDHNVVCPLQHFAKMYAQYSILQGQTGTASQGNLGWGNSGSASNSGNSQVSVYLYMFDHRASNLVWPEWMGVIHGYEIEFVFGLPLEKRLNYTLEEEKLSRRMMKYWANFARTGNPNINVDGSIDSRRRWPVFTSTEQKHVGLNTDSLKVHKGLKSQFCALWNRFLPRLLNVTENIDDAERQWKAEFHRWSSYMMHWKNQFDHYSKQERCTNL
T3 sequence (P81908 whole entry): as the sequence (P81908 whole entry) above

With `COc1cccc(Cn2cc(COc3ccc(-c4cc5ccccc5oc4=O)cc3)nn2)c1` [8l, 3-(4-((1-(3-Methoxybenzyl)-1H-1,2,3-triazol-4-yl)methoxy)phenyl)-2H-chromen-2-one], the inhibition at 100 µM in series [1] was 36.2 ± 6.1%. For the same compound, in series [2], the half-maximal inhibitory concentration (IC50) is 39.1 ± 1.1 µM. Further, the Ki at BuChE was 14.1 µM. Further, the “H2O2 level of BV-2 cells (% ± SEM of control)” value in the series on BV-2 cells is listed as 97.6 ± 6.1 % of control. Further, the “ee AChE %inhib.” value in series [3] is given as 16.5%. Besides, on Aβ1-42, the “Self-induced Aβ aggregation inhibition relative to donepezil” value is reported as 1.44 times and the “Inhibition of self-induced Aβ1-42 aggregation” value is on record as 61.3 ± 4.8%. For the same compound, the IC50 in series [4] is 19.5 ± 0.9 µM. In addition, the viability at 24 h, 50 µM in “in vitro” (rat, PC12 cells) is 96.5 ± 0.9%.

Take `COc1cccc2cc(-c3ccc(OCc4cn(Cc5ccccc5)nn4)cc3)c(=O)oc12` [8n, 3-(4-((1-Benzyl-1H-1,2,3-triazol-4-yl)methoxy)phenyl)-8-methoxy-2H-chromen-2-one]: the inhibition at 100 µM in series [1] was found to be 25.1 ± 8.7%. The IC50 in series [2] came to 42.5 ± 1.7 µM; in series [4], 45.1 ± 1.3 µM. For the same compound, in the series on BV-2 cells, the “H2O2 level of BV-2 cells (% ± SEM of control)” value is given as 122.4 ± 8.3 % of control. In addition, in series [3], the “ee AChE %inhib.” value was found to be 49.9%. Moreover, on Aβ1-42, the “Self-induced Aβ aggregation inhibition relative to donepezil” value was determined as 1.79 times. In addition, the “Inhibition of self-induced Aβ1-42 aggregation” value on Aβ1-42 amounted to 76.2 ± 6.4%. In addition, the viability at 24 h, 50 µM in the series “in vitro” (rat, PC12 cells) worked out at 95.2 ± 1.1%.

In the case of `Cc1cc(C(C)(C)C)c(O)c(C(C)(C)C)c1` [BHT, butylated hydroxytoluene, reference compound], the “H2O2 level of BV-2 cells (% ± SEM of control)” value in the series with BV-2 cells was 114.4 ± 8.5 % of control.

In the case of `Nc1c2c(nc3ccccc13)CCCC2` [Tacrine, tacrine, reference compound], in the series “in vitro”, the viability at 24 h, 50 µM came to 67.3 ± 1.3%.

The inhibition is the drop in the measured response relative to a control, in per cent. The term IC50 denotes the concentration at which inhibition is half-maximal. A word on the Ki: it is the equilibrium dissociation constant of an inhibitor or competing ligand from its target. What is called viability is a per cent measure of how many cells are alive, often set against a control.
